Reference: US10604523B2, “1-aryl-4-methyl-[1,2,4]triazolo[4,3-a]quinoxaline derivatives” (Janssen Pharmaceutica NV, priority 2011, dated 2020)
Like-named read-outs stand apart in the source and are kept apart here.

Tests used:
[1] = molecular target: T1, Human recombinant PDE2A (hPDE2A) (Homo sapiens, UniProt O00408); experiment: In vitro assay PDE2A (SPA, 3H-cGMP); format: biochemical; details: read-out: pIC50 PDE2 (converted)
T1 construct: made in house; host or cells: Sf9 insect cells (baculovirus)
T1 sequence (O00408 whole entry): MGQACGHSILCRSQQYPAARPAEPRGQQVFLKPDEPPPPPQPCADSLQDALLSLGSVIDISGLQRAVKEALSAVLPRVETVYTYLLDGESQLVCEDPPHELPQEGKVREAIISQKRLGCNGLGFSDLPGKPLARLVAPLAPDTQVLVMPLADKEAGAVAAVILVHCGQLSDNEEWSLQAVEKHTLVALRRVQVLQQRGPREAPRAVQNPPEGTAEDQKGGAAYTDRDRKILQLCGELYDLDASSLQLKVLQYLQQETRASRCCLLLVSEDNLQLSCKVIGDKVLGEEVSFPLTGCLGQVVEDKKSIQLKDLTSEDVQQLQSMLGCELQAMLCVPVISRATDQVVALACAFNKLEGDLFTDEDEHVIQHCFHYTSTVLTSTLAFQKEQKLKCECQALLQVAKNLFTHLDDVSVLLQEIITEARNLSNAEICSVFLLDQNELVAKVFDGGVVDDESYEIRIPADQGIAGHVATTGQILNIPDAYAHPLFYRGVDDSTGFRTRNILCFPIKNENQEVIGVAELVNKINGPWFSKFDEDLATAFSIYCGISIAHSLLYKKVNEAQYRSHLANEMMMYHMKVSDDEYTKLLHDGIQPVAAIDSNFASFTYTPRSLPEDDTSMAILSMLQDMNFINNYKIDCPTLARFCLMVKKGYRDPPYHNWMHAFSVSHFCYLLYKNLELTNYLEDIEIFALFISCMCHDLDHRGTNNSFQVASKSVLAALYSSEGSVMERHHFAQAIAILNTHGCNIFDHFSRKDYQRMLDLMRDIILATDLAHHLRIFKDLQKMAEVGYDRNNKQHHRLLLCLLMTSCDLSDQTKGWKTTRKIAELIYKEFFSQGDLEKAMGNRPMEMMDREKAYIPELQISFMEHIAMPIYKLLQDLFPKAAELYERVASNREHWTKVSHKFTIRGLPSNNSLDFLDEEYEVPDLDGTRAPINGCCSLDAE

[2] = molecular target: T2, Rat recombinant PDE10A (rPDE10A2) (Rattus norvegicus, UniProt Q9QYJ6); experiment: In vitro assay PDE10A (SPA, 3H-cAMP); format: biochemical; details: for IC50: read-out: PIC50 PDE10 (converted)
T2 construct: made in house; host or cells: Sf9 insect cells (baculovirus)
T2 sequence (Q9QYJ6 1-794): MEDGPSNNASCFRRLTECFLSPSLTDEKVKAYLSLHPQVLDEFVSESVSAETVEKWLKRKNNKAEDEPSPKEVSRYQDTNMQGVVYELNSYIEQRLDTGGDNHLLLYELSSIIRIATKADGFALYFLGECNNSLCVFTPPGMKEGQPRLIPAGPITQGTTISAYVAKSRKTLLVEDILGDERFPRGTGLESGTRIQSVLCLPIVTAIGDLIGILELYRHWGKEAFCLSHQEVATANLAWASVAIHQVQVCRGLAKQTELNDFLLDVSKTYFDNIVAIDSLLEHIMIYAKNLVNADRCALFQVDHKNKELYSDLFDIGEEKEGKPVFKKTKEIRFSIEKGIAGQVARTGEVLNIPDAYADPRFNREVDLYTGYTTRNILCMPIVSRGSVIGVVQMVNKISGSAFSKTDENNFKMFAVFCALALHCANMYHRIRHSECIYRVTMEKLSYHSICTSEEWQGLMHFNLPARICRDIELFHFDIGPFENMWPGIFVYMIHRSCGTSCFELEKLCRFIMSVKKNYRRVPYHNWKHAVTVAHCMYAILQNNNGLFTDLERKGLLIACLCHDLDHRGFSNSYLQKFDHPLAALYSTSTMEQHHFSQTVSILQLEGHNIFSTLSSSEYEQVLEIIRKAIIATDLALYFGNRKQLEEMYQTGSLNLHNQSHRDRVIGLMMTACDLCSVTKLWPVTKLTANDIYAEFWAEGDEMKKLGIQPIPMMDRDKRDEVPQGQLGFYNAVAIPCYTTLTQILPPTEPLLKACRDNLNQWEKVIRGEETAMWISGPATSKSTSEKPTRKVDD

[3] = system: Apomorphine-induced agitation; experiment: Reversal of Apomorphine-induced Agitation in Rats (APO); format: in vivo, rat; details: for PO Max effect (cumulative agitation score over 60 min) / SC Max effect (cumulative agitation score over 60 min): apomorphine 1.0 mg/kg i.v.; for PO LAD (lowest active dose) / SC LAD (lowest active dose): lowest dose at which ≥67% tested animals respond; for SC Dose at max effect / SC Max effect (cumulative agitation score over 60 min) / SC LAD (lowest active dose): subcutaneous route
Experimental: Apomorphine (1.0 mg/kg, i.v.)-induced agitation was scored every 5 min over the first hour after injection of apomorphine. The score system was: (3) pronounced, (2) moderate, (1) slight, and (0) absent. […] For the present purpose, the cumulative agitation score over the whole 60-min observation period was used as a measure to describe the maximum effect (Max effect).

[4] = -log IC50 expressed in mol/L, rPDE10A2, 60 nM cAMP

| IC50 [1] [nM] | IC50 [2] [nM] | SMILES | other results |
| --- | --- | --- | --- |
| 27.5 | 3090 | Cc1nc2ccc(Br)cc2n2c(-c3cncc(OCC4CC4)c3)nnc12 [Compound B-125] | – |
| 27.5 | 331 | Cc1nc2ccc(C(=O)OCCc3ccccc3)cc2n2c(-c3ccccc3)nnc12 [Compound B-122] | – |
| 14.5 | 191 | Cc1nc2ccc(COc3ccccc3)cc2n2c(-c3ccccc3)nnc12 [Compound B-98] | – |
| 89.1 | 5890 | COCCc1cncc(-c2nnc3c(C)nc4ccc(CN5CCOCC5)cc4n23)c1 [Compound B-198] | – |
| 29.5 | 7760 | CCOCc1cncc(-c2nnc3c(C)nc4ccc(CN5CCOCC5)cc4n23)c1 [Compound B-194] | – |
| 0.631 | 20.4 | COCCNC(=O)c1ccc2nc(C)c3nnc(-c4ccccc4Cl)n3c2c1 [Compound B-37] | – |
| 126 | 7760 | CCNC(=O)c1ccc2c(c1)nc(C)c1nnc(-c3cncc(OC)c3)n12 [Compound B-172] | – |
| 40.7 | 1020 | Cc1nc2ccc(OCCc3cccnc3)cc2n2c(-c3cc(OC(C)C)ccc3Cl)nnc12 [Compound B-146] | – |
| 4.47 | 31.6 | Cc1nc2ccc(C(=O)C3CC3)cc2n2c(-c3ccccc3Cl)nnc12 [Compound B-144] | – |
| 44.7 | 380 | Cc1nc2ccc(CO)cc2n2c(-c3ccccc3)nnc12 [Compound B-29, (4-Methyl-1-phenyl[1,2,4]triazolo[4,3-a]quinoxalin-8-yl)methanol] | – |
| 240 | 5500 | CCNC(=O)c1ccc2nc(C)c3nnc(-c4ccccn4)n3c2c1 [Compound B-181] | – |
| 28.2 | 2450 | CCCCOc1ccc(Cl)c(-c2nnc3c(C)nc4ccc(CNC5CCC5)cc4n23)c1 [Compound B-126] | – |
| 11.2 | 26.9 | Cc1nc2ccc(N(C)C)cc2n2c(-c3ccccc3Cl)nnc12 [Compound B-87] | – |
| 2.34 | 29.5 | Cc1nc2ccc(N)cc2n2c(-c3ccccc3Cl)nnc12 [Compound B-27, 1-(2-Chlorophenyl)-4-methyl[1,2,4]triazolo[4,3-a]quinoxalin-8-amine] | – |
| 69.2 | 1150 | COc1cncc(-c2nnc3c(C)nc4ccc(C(F)(F)F)cc4n23)c1 [Compound B-163] | – |
| 0.204 | 8.13 | Cc1nc2ccc(C(=O)NCc3cc(F)ccn3)cc2n2c(-c3ccccc3Cl)nnc12 [Compound B-31] | – |
| 30.2 | 1230 | Cc1nc2ccc(CNc3cccnc3)cc2n2c(-c3cc(OC(C)C)ccc3Cl)nnc12 [Compound B-133] | – |
| 8.13 | 1910 | CCCCOc1ccc(Cl)c(-c2nnc3c(C)nc4ccc(CN5CCCC5)cc4n23)c1 [Compound B-79] | – |
| 60.3 | 9120 | CCCCOc1cncc(-c2nnc3c(C)nc4ccc(CNC5CCC5)cc4n23)c1 [Compound B-155] | – |
| 135 | > 10000 | CCCCOc1cncc(-c2nnc3c(C)nc4ccc(CN5CCCC5)cc4n23)c1 [Compound B-206] | – |
| – | – | CCNC(=O)c1ccc2nc(C)c3nnc(-c4ccccc4Cl)n3c2c1 [Compound B-10, 1-(2-Chlorophenyl)-N-ethyl-4-methyl[1,2,4]triazolo[4,3-a]quinoxaline-8-carboxamide] | IC50 [2, 4]: 21.4 nM; PO Dose at Max Effect [3]: 2.5 mg/kg; PO Max effect (cumulative agitation score over 60 min) [3]: 21; PO LAD (lowest active dose) [3]: > 2.5 mg/kg |
| 33.1 | 1000 | CCCOc1ccc(Cl)c(-c2nnc3c(C)nc4ccc(CN5CCN(C)CC5)cc4n23)c1 [Compound B-137] | – |

| IC50 [1] [nM] | IC50 [2] [nM] | SMILES | other results |
| --- | --- | --- | --- |
| 28.8 | 891 | CCCOc1ccc(Cl)c(-c2nnc3c(C)nc4ccc(CN5CCC(O)CC5)cc4n23)c1 [Compound B-129] | – |
| 44.7 | 87.1 | Cc1nc2ccc(NC3CCN(C)CC3)cc2n2c(-c3ccccc3Cl)nnc12 [Compound B-147] | – |
| – | 44.7 | CCN(CC)CCNC(=O)c1ccc2nc(C)c3nnc(-c4ccccc4Cl)n3c2c1 [Compound B-41] | SC Dose at max effect [3]: 10 mg/kg; SC Max effect (cumulative agitation score over 60 min) [3]: 22; SC LAD (lowest active dose) [3]: > 10 mg/kg |
| 51.3 | 447 | CCOC(=O)c1ccc2c(c1)nc(C)c1nnc(-c3ccccc3Cl)n12 [Compound B-1b, ethyl 1-(2-chlorophenyl)-4-methyl[1,2,4]triazolo[4,3-a]quinoxaline-7-carboxylate] | – |
| 204 | 1780 | CCNC(=O)c1ccc2c(c1)nc(C)c1nnc(-c3cccnc3OC)n12 [Compound B-180] | – |
| 89.1 | 3890 | Cc1nc2ccc(CN3CCC(F)CC3)cc2n2c(-c3cncc(OCC4CC4)c3)nnc12 [Compound B-199] | – |
| 39.8 | 525 | Cc1ccncc1-c1nnc2c(C)nc3ccc(C(=O)C4CC4)cc3n12 [Compound B-24, Cyclopropyl [4-methyl-1-(4-methylpyridin-3-yl) [1,2,4]triazolo[4,3-a]quinoxalin-8-yl]methanone] | – |
| 24.5 | 1120 | Cc1nc2ccc(N3CCN(C)CC3)cc2n2c(-c3cc(OC(C)C)ccc3Cl)nnc12 [Compound B-115] | – |
| 60.3 | 8710 | CCCOc1ccc(Cl)c(-c2nnc3c(C)nc4ccc(OC[C@@H]5CCCN5)cc4n23)c1 [Compound B-161] | – |
| – | – | Cc1nc2ccc(C(=O)NCc3ccccn3)cc2n2c(-c3ccccc3Cl)nnc12 [Compound B-35] | IC50 [2, 4]: 8.32 nM; PO Dose at Max Effect [3]: 10 mg/kg; PO Max effect (cumulative agitation score over 60 min) [3]: 22; PO LAD (lowest active dose) [3]: > 10 mg/kg |
| – | – | COC1CCN(Cc2ccc3nc(C)c4nnc(-c5ccccc5Cl)n4c3c2)CC1 [Compound B-93] | PIC50 PDE10 [2, 4]: 7.41; SC Dose at max effect [3]: 10 mg/kg; SC Max effect (cumulative agitation score over 60 min) [3]: 7; SC LAD (lowest active dose) [3]: 10 mg/kg |
| 316 | – | Cc1nc2ccccc2n2c(-c3cncc(Cl)c3)nnc12 [Compound B-183] | – |
| – | – | COc1cncc(-c2nnc3c(C)nc4ccc(CN5CCOCC5)cc4n23)c1 [Compound B-91] | PIC50 PDE10 [2, 4]: 6.57; SC Dose at max effect [3]: 10 mg/kg; SC Max effect (cumulative agitation score over 60 min) [3]: 21; SC LAD (lowest active dose) [3]: > 10 mg/kg |
| 162 | – | Cc1cncc(-c2nnc3c(C)nc4ccccc4n23)c1 [Compound B-177] | – |
| – | 85.1 | Cc1nc2ccc(CN3CCOCC3)cc2n2c(-c3ccc(F)cc3Cl)nnc12 [Compound B-82] | SC Dose at max effect [3]: 10 mg/kg; SC Max effect (cumulative agitation score over 60 min) [3]: 9; SC LAD (lowest active dose) [3]: 2.5 mg/kg |
| – | 41.7 | Cc1nc2ccc(C(=O)NCc3ccccc3)cc2n2c(-c3ccccc3)nnc12 [Compound B-9, N-Benzyl-4-methyl-1-phenyl[1,2,4]triazolo[4,3-a]quinoxaline-8-carboxamide] | PO Dose at Max Effect [3]: 2.5 mg/kg; PO Max effect (cumulative agitation score over 60 min) [3]: 22; PO LAD (lowest active dose) [3]: > 2.5 mg/kg |
| – | – | CCOc1ccc(Cl)c(-c2nnc3c(C)nc4ccc(CN5CCOCC5)cc4n23)c1 [Compound B-70] | PIC50 PDE10 [2, 4]: 6.58; SC Dose at max effect [3]: 10 mg/kg; SC Max effect (cumulative agitation score over 60 min) [3]: 24; SC LAD (lowest active dose) [3]: > 10 mg/kg |
| – | 251 | CCNC(=O)c1ccc2nc(C)c3nnc(-c4ccccc4)n3c2c1 [Compound B-65] | PO Dose at Max Effect [3]: 10 mg/kg; PO Max effect (cumulative agitation score over 60 min) [3]: 21; PO LAD (lowest active dose) [3]: > 10 mg/kg |
| 138 | – | Cc1ncccc1-c1nnc2c(C)nc3ccccc3n12 [Compound B-174] | – |
| – | – | Cc1nc2ccc(Br)cc2n2c(-c3ccccc3Cl)nnc12 [Compound B-3a, 8-Bromo-1-(2-chlorophenyl)-4-methyl[1,2,4]triazolo[4,3-a]quinoxaline] | IC50 [2, 4]: 43.7 nM; PO Dose at Max Effect [3]: 10 mg/kg; PO Max effect (cumulative agitation score over 60 min) [3]: 22; PO LAD (lowest active dose) [3]: > 10 mg/kg |
| – | – | CCCOc1ccc(Cl)c(-c2nnc3c(C)nc4ccc(CN5CCOCC5)cc4n23)c1 [Compound B-72] | PIC50 PDE10 [2, 4]: 6.49; SC Dose at max effect [3]: 10 mg/kg; SC Max effect (cumulative agitation score over 60 min) [3]: 23; SC LAD (lowest active dose) [3]: > 10 mg/kg |
| – | 316 | CCOc1ccc(Cl)c(-c2nnc3c(C)nc4ccc(CN(C)C)cc4n23)c1 [Compound B-142] | SC Dose at max effect [3]: 10 mg/kg; SC Max effect (cumulative agitation score over 60 min) [3]: 22; SC LAD (lowest active dose) [3]: > 10 mg/kg |

| SMILES | IC50 [1] [nM] | IC50 [2] [nM] | other results |
| --- | --- | --- | --- |
| CCCCOc1ccc(Cl)c(-c2nnc3c(C)nc4ccc(N5CCN(C)CC5)cc4n23)c1 [Compound B-26, 1-(5-Butoxy-2-chlorophenyl)-4-methyl-8-(4-methylpiperazin-1-yl) [1,2,4]triazolo-[4,3-a]quinoxaline] | 17.4 | 1260 | – |
